According to US8815846B2, “Family of antichagasics derived from imidazo[4,5-C][1,2,6]thiadiazine 2,2-dioxide” (Universidad de la Republica de Uruguay, priority 2009, dated 2014):
Read-outs that look alike come from different tables or passages of the source. Blank lines part the entries; values can stand above or below the molecule they belong to.

Key:
[1] = tested on: Trypanosoma cruzi, epimastigote form of the Tulahuen 2 strain; test: In vitro growth inhibition of Trypanosoma cruzi epimastigotes (Tulahuen 2 strain), absorbance at 600 nm; assay type: cell-based; conditions: 120 h, absorbance on day 5, duplicate, error ±3%, read-out: IC50 Anti-T. cruzi activity of the Tulahuen 2 strain
Description: The studies of the antichagasic activity were performed in vitro against Trypanosoma cruzi, on the epimastigote form of the Tulahuen 2 strains, (from the strains collection of the Biological Physicochemistry Laboratory, of the Institute of Biological Chemistry, of the Faculty of Science, University of the Republica Oriental of Uruguay, Uruguay). Said strains were cultured at 28° C. in an axenic medium (BHI-tryptose), complemented with 5% of fetal bovine serum. […] The growth of the parasite was followed during 11 days by culture absorbance measurements at 600 nm, proportional to the number of cells present. Before inoculation, a pre-established quantity of each compound of the invention to test was incorporated in the medium, dissolved in DMSO (dimethylsulfoxide). The final concentration of DMSO in the culture medium never exceeded 0.4%, using a blank (absence of product or compound of the invention) with 0.4% DMSO. […] The growth PI was calculated as follows: PI={1−[(Ap−Aop)/(Ac−Aoc)]}×100 where: • Ap=A600 nm of the culture containing the product on day 5. • Aop=A600 nm of the culture containing the product after addition of the culture (day 0). • Ac=A600 nm of the blank on day 5. • Aoc=A600 nm of the blank on day 0. The A600 nm taken on day 5 corresponds to the late exponential phase in the culture growth curve. The determination of the IC50 (half maximal inhibitory concentration) was performed following the growth of the parasite in the absence (control) and presence of increasing concentrations of the corresponding products. The absorbance was measured on day 5 and it was related to the control.

cruzipain = cruzipain (Trypanosoma cruzi, UniProt P25779); test: Cruzipain enzyme inhibition (chromogenic substrate Bz-Pro-Phe-Arg-p-NA, absorbance 410 nm); assay type: biochemical; conditions: 10 min preincubation, pH 7.6, read-out: % Inhibition CP (cruzipain); for inhibition at 25 µM: 25 μM inhibitor; for inhibition at 50 µM: 50 μM inhibitor; for inhibition at 100 µM: 100 μM inhibitor
Description: The capacity of inhibiting the cruzipain enzyme was performed according to the protocol detailed below: cruzipain (10 μL) was incubated with a reaction mixture containing a final concentration of 50 mM of Tris-HCl buffer solution, pH 7.6, 10 mM β-mercaptoethanol and 25, 50 or 100 μM of the inhibitor during 10 min at ambient temperature. Later the chromogenic substrate Bz-Pro-Phe-Arg-p-NA was aggregated at a final concentration of 150 μM, and the increase in absorbance at 410 nm was followed for 5 min at temperature in a Beckman DU 650 spectrophotometer. The inhibitors were added dissolved in DMSO and the controls (100% of enzymatic activity) contained the same concentration of solvent. The final volume of the assay is 100 μL. The values represented at least three independent assays. The data obtained for some of the derivatives in table 3 are shown by way of example.

J774 murine macrophages = test: Non-specific cytotoxicity against J774 murine macrophages (MTT/formazan); assay type: cell-based; conditions: for IC50: Mus musculus, read-out: IC50 concentration of compound which reduces the growth of macrophages by 50%; for PC J774 macrophages (%) (percentage of non-specific cytotoxicity): MTT
Description: The cellular viability was determined based on the conservation of mitochondrial activity by the MTT/formazan method.

[2] = J774 murine macrophages, 48 hours, average of two evaluations

cruzipain, sequence (P25779 123-467): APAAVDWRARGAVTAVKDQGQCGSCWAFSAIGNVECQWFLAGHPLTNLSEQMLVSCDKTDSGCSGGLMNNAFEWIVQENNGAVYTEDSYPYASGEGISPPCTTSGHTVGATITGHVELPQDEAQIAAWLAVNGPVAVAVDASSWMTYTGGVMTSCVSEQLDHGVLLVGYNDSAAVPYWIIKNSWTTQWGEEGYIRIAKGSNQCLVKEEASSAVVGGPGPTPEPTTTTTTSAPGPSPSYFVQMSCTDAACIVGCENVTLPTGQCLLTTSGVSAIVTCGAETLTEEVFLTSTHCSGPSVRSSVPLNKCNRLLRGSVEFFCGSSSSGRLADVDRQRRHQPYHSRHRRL

IC50 [1]: 20.2 µM
Compound: NC1=NS(=O)(=O)Nc2nc(-c3ccccc3F)[nH]c21

IC50 [1]: 22.2 µM
Compound: NC1=NS(=O)(=O)Nc2nc(-c3ccsc3)[nH]c21

IC50 [1]: 28.5 µM
Compound: CN(C)c1ccc(-c2nc3c([nH]2)C(N)=NS(=O)(=O)N3)cc1

IC50 [1]: 28.9 µM
Compound: NC1=NS(=O)(=O)Nc2nc(C3CCCC3)[nH]c21

IC50 [1]: 26.2 µM
Compound: CN1c2nc(-c3ccsc3)[nH]c2C(N)=NS1(=O)=O

IC50 [1]: 28.5 µM
Compound: CCc1nc2c([nH]1)C(N)=NS(=O)(=O)N2

IC50 [1]: 29.5 µM
Compound: NC1=NS(=O)(=O)N(Cc2ccccc2)c2nc(-c3ccccc3)[nH]c21

inhibition at 25 µM (cruzipain): 10% | inhibition at 50 µM (cruzipain): 39% | inhibition at 100 µM (cruzipain): 40%
Compound: NC1=NS(=O)(=O)N(Cc2ccccc2)c2nc(C3CCCCC3)n(Cc3ccc(Cl)cc3)c21

inhibition at 100 µM (cruzipain): 31%
Compound: NC1=NS(=O)(=O)N(Cc2ccc(Cl)cc2)c2nc(C3CCCCC3)n(Cc3ccc(Cl)cc3)c21

inhibition at 25 µM (cruzipain): 0% | inhibition at 50 µM (cruzipain): 7% | inhibition at 100 µM (cruzipain): 28%
Compound: NC1=NS(=O)(=O)N(Cc2ccc(Cl)cc2)c2nc(C3CCCCC3)[nH]c21

IC50 [1]: 7.4 µM
Compound: O=C(Cn1ccnc1[N+](=O)[O-])NCc1ccccc1 [Benznidazole, N-benzyl-2-nitro-1-imidazole acetamide, reference compound]

melting point: 263 to 265 °C
Compound: NC1=NS(=O)(=O)Nc2nc(C3CCCCC3)[nH]c21 [Example 1a, 4-amino-6-cyclohexyl-1H,5H-imidazo[4,5-c][1,2,6]thiadiazine 2,2-dioxide]

melting point: 238 to 240 °C
Compound: NC1=NS(=O)(=O)Nc2nc(C3CCOC3)[nH]c21 (stereo not shown) [Example 1b, 4-amino-6-(3-tetrahydrofuryl)-1H,5H-imidazo[4,5-c][1,2,6]thiadiazine 2,2-dioxide]

melting point: 190 to 192 °C
Compound: NC1=NS(=O)(=O)Nc2nc(CCc3ccccc3)[nH]c21 [Example 1c, 4-amino-6-phenethyl-1H,5H-imidazo[4,5-c][1,2,6]thiadiazine 2,2-dioxide]

melting point: 238 to 240 °C
Compound: NC1=NS(=O)(=O)N(Cc2ccccc2)c2nc(-c3ccccc3)n(Cc3ccccc3)c21 [Example 3a, 4-amino-1,5-dibenzyl-6-phenylimidazo[4,5-c][1,2,6]thiadiazine 2,2-dioxide]

melting point: 245 to 247 °C
Compound: NC1=NS(=O)(=O)N(Cc2ccccc2)c2nc(-c3ccccc3)n(Cc3ccc(Cl)cc3)c21 [Example 3b, 4-amino-1-benzyl-5-(4-chlorobenzyl)-6-phenylimidazo[4,5-c][1,2,6]thiadiazine 2,2-dioxide]

Compound: CC(=O)N1CCN(c2ccc(OCC3COC(Cn4ccnc4)(c4ccc(Cl)cc4Cl)O3)cc2)CC1 (stereo not shown) [Ketoconazole, reference compound]
IC50 (J774 murine macrophages; J774, 48 h): < 100 µM

Compound: CC1CS(=O)(=O)CCN1N=Cc1ccc([N+](=O)[O-])o1 (stereo not shown) [Nifurtimox, 4-([5 nitrofurfurylidene]-amino)-3-methylthiomorpholine-1,1-dioxide, reference compound]
IC50 [1]: 7.7 µM | IC50 (J774 murine macrophages; J774, 48 h): 316 µM

Compound: CN(C/C=C/C#CC(C)(C)C)Cc1cccc2ccccc12 [Terbinafine, reference compound]
PC J774 macrophages (%) (percentage of non-specific cytotoxicity) (J774 murine macrophages; 100 μM compound, 48 hours): 10.0% | PC J774 macrophages (%) (percentage of non-specific cytotoxicity) (J774 murine macrophages; 200 μM compound, 48 hours): 26.0% | PC J774 macrophages (%) (percentage of non-specific cytotoxicity) (J774 murine macrophages; 400 μM compound, 48 hours): 60.0% | IC50 (J774 murine macrophages; [2]): 339 µM

IC50 [1]: 16.2 µM
Compound: NC1=NS(=O)(=O)Nc2nc(Cc3ccccc3)[nH]c21 [drawing 7]

IC50 [1]: 16.7 µM
Compound: CN1c2nc(-c3ccccc3)[nH]c2C(N)=NS1(=O)=O [drawing 8]

IC50 [1]: 4.5 µM
Compound: NC1=NS(=O)(=O)N(Cc2ccccc2)c2nc(-c3ccccc3)n(Cc3ccccc3)c21 [drawing 10]

IC50 [1]: 12.7 µM
Compound: NC1=NS(=O)(=O)Nc2nc(C3CCCCC3)[nH]c21 [drawing 11]

IC50 [1]: 20.3 µM
Compound: NC1=NS(=O)(=O)Nc2nc(C3CCOC3)[nH]c21 (stereo not shown) [drawing 12]

IC50 [1]: 11.5 µM
Compound: NC1=NS(=O)(=O)Nc2nc(CCc3ccccc3)[nH]c21 [drawing 14]

IC50 [1]: 7 µM
Compound: NC1=NS(=O)(=O)N(Cc2ccc(Cl)cc2)c2nc(-c3ccccc3F)[nH]c21 [drawing 16]

IC50 [1]: 28.7 µM
Compound: NC1=NS(=O)(=O)N(Cc2ccccc2)c2nc(C3CCCCC3)n(Cc3ccccc3)c21 [drawing 17]

IC50 [1]: 10 µM
Compound: NC1=NS(=O)(=O)N(Cc2ccccc2)c2nc(-c3ccccc3)n(Cc3ccc(Cl)cc3)c21 [drawing 18]

Compound: NC1=NS(=O)(=O)Nc2nc(Cc3ccccc3)[nH]c21 [drawing 19]
PC J774 macrophages (%) (percentage of non-specific cytotoxicity) (J774 murine macrophages; 100 μM compound, 48 hours): 17.6% | PC J774 macrophages (%) (percentage of non-specific cytotoxicity) (J774 murine macrophages; 200 μM compound, 48 hours): 24.3% | PC J774 macrophages (%) (percentage of non-specific cytotoxicity) (J774 murine macrophages; 400 μM compound, 48 hours): 29.4% | IC50 (J774 murine macrophages; [2]): > 400 µM

Compound: NC1=NS(=O)(=O)Nc2nc(C3CCCCC3)[nH]c21 [drawing 20]
PC J774 macrophages (%) (percentage of non-specific cytotoxicity) (J774 murine macrophages; 100 μM compound, 48 hours): 1.4% | PC J774 macrophages (%) (percentage of non-specific cytotoxicity) (J774 murine macrophages; 200 μM compound, 48 hours): 8.0% | PC J774 macrophages (%) (percentage of non-specific cytotoxicity) (J774 murine macrophages; 400 μM compound, 48 hours): 11.5% | IC50 (J774 murine macrophages; [2]): > 400 µM

Compound: NC1=NS(=O)(=O)N(Cc2ccc(Cl)cc2)c2nc(-c3ccccc3F)[nH]c21 [drawing 21]
PC J774 macrophages (%) (percentage of non-specific cytotoxicity) (J774 murine macrophages; 100 μM compound, 48 hours): 100.0% | PC J774 macrophages (%) (percentage of non-specific cytotoxicity) (J774 murine macrophages; 200 μM compound, 48 hours): 100.0% | PC J774 macrophages (%) (percentage of non-specific cytotoxicity) (J774 murine macrophages; 400 μM compound, 48 hours): 100.0% | IC50 (J774 murine macrophages; [2]): < 100 µM

Compound: CN1c2nc(-c3ccccc3)[nH]c2C(N)=NS1(=O)=O [drawing 22]
PC J774 macrophages (%) (percentage of non-specific cytotoxicity) (J774 murine macrophages; 100 μM compound, 48 hours): 22.5% | PC J774 macrophages (%) (percentage of non-specific cytotoxicity) (J774 murine macrophages; 200 μM compound, 48 hours): 77.5% | PC J774 macrophages (%) (percentage of non-specific cytotoxicity) (J774 murine macrophages; 400 μM compound, 48 hours): 99.0% | IC50 (J774 murine macrophages; [2]): 128 µM

inhibition at 25 µM (cruzipain): 0% | inhibition at 50 µM (cruzipain): 30% | inhibition at 100 µM (cruzipain): 58%
Compound: NC1=NS(=O)(=O)N(Cc2ccccc2)c2nc(C3CCCCC3)n(Cc3ccccc3)c21 [drawing 23]

inhibition at 25 µM (cruzipain): 7% | inhibition at 50 µM (cruzipain): 30% | inhibition at 100 µM (cruzipain): 30%
Compound: NC1=NS(=O)(=O)N(Cc2ccc(Cl)cc2)c2nc(-c3ccccc3F)[nH]c21 [drawing 27]
